For data set [1], the system named is MCF-7 human breast tumor cells. Briefly: MTT growth inhibition, MCF-7. The format is cell-based. The settings on record: MCF7, 144 h, MCF-7, MTT, 6 days, read-out: Growth Inhibitory Activity IC50. The method, then: (§1) Camptothecin was used as a control to test the anti-cancer efficacy of the novel camptothecin analogs of the present invention.
(§2) Murine B16 melanoma cell line was grown in RPMI 1640 medium supplemented with 10% heat-inactivated fetal bovine serum, 2 mM L-glutamine, 50 units/mL penicillin, 50 μg/mL streptomycin, 25 μg/mL gentamicin, 0.75% sodium bicarbonate 10 mM HEPES buffer (pH 7.4), and 0.06 mg/mL AntiPPLO. Murine P388 leukemic cell line and human HT-29 colon adenocarcinoma line were maintained in RPMI 1640 medium supplemented with 10% heat-inactivated fetal bovine serum. […] MCF-7M human breast adenocarcinoma was maintained in IMEM supplemented with 5% non heat-inactivated fetal bovine serum and 1 nM insulin.
(§3) [See "Rapid Colorimetric Assay For Cellular Growth And Survival: Application To Proliferation And Cytotoxicity Assays," J. Immun. Meth. 65:55 (1983)]. The assay utilizes a tetrazolium salt to quantitatively measure mammalian cell survival and proliferation by colorimetric methods. In particular, MTT, a pale yellow compound with minimal absorbance, is incubated with cancerous cells in addition to (or in the absence of) a particular camptothecin analog. Living cells with active mitochondrial enzymes metabolize the MTT into a dark blue/purple formazan product with high absorbance. The exact procedure used to test the camptothecin analogs of the present invention is described below.
(§4) Exponentially growing cells (1-2×10^3 cells, unless specified otherwise) in 0.1 mL medium were seeded on day 0 in a 96-well microtiter plate. On day 1, 0.1 mL aliquots of medium containing graded concentrations of test analogs were added to the cell plates. After incubation at 37° C. in a humidified incubator for 3 days (P388, P388/CPT, B16) or 6 days (HT-29, MCF-7M), the plates were centrifuged briefly and 100 μL of the growth medium was removed. Cell cultures were incubated with 50 μL of 3-(4,5-dimethylthiazol-2-yl)-2,5-diphenyl-tetrazolium bromide [MTT, 1 mg/mL in Dulbecco's phosphate buffered saline (PBS)] for 4 hr at 37° C. The resulting purple formazan precipitate was solubilized with 200 μL of 0.04 N HCl in isopropyl alcohol. Absorbance was monitored in a BioRad Model 3550 Microplate Reader at a test wavelength of 570 nm and a reference wavelength of 630 nm. The absorbance is transferred to a PC 486 computer. The IC50 values were determined by a computer program (EZ-ED50) that fits all of the data to the following four-parameter logistic equation:
(§5) Y=(Amax -Amin)/(1+[X/IC^50 ])^n +Amin
(§6) where Amax is the absorbance of control cells, Amin is the absorbance of cells in the presence of highest agent concentration, IC^50 is the concentration of agent that inhibits the cell growth by 50% of control cells (based on the absorbance) and n is the slope of the curve.

For data set [2], the system named is HT-29 human colon adenocarcinoma cells. Briefly: MTT growth inhibition, HT-29. The format is cell-based. To be noted: 144 h, HT-29, MTT, 6 days, read-out: Growth Inhibitory Activity IC50. The method, then: as §1, §2, §3, §4, §5, §6
Data set [3] deals with P388/CPT CPT-resistant murine leukemia cells. Put plainly: MTT growth inhibition, P388/CPT. The format is cell-based. The settings on record: Mus musculus, 72 h, 3 days, read-out: Growth Inhibitory Activity IC50. As for the experimental part: as §1, §2, §3, §4, §5, §6
Data set [4] relates to P388 murine leukemia cells. Briefly: MTT growth inhibition, P388. The format is cell-based. The settings on record: Mus musculus, 72 h, 3 days, read-out: Growth Inhibitory Activity IC50. As for the experimental part:
as §1, §2, §3, §4, §5, §6

Data set [5] in a line: Water solubility in phosphate buffered saline (spectrophotometric assay). The format is physicochemical. To be noted: for solubility at 24 h: aqueous buffer, water solubility, PBS pH 7.5, room temperature; for water solubility improvement: compared to camptothecin. As for the experimental part:
Approximately 5 mg of test compound was suspended in 1 mL of PBS in a 1.5 mL cryovial. The suspensions were mixed continuously on a Thermolyne vari-mix at room temperature for 24 hr. The suspensions were then centrifuged at 14000×g for 2 minutes to separate the undissolved materials. The supernatant fluids were diluted appropriately with PBS and the ultraviolet spectrums were recorded on a Beckman 640 DU spectrophotometer. For comparison, a standard stock (2 mg/mL in DMSO) solution was prepared for each analog. The ultraviolet spectrum of a 20 of 40 μg/mL standard working solution was measured. The water solubility of each analog was calculated based on the following formula:
Cunknown =Cstandard ×(Aunknown
where Cunknown is the concentration of the unknown solution to be determined; Cstandard is the concentration of the standard working solution (either 20 or 40 μg/mL); Astandard is the absorbance at 350 nm of the standard working solution; DDilution is the appropriate dilution factor used so that the absorbance of the unknown working solution is within the dynamic range of the UV spectrophotometer (less than 2 absorbance units).

In the next data set the test system is tumor cells. Briefly: MTT growth inhibition across tumor cell lines (P388, P388/CPT, B16, HT-29, MCF-7M). The format is cell-based. The settings on record: for growth inhibitory activity: comparison in words. The method, then:
as §3
as §4, with “equation: […]” for “equation:”

For data set [6], the system named is B16 murine melanoma cells. Briefly: MTT growth inhibition, B16. It counts as cell-based. To be noted: Mus musculus, 72 h, 3 days, read-out: Growth Inhibitory Activity IC50. As for the experimental part:
as §1, §2, §3, §4, §5, §6

One may read the IC50 as the concentration that inhibits the measured activity by half. What is called solubility is the concentration that dissolves in the medium under given conditions. A low value points to a poorly soluble substance.

In brackets after ≈: the same amount, converted by molar mass.

Regarding `CC[C@@]1(O)C(=O)OCc2c1cc1n(c2=O)Cc2c-1nc1ccccc1c2CO[C@@H]1C=C[C@H](OC(C)=O)[C@@H](COC(C)=O)O1` [HAR4, 7-[4,6-di-O-acetyl-2,3-dideoxy-α-D-erythro-hex-2-enopyranosyl]oxymethylcamptothecin], the IC50 in data set [1] stood at 0.0027 µg/mL (≈ 0.00457 µM); in data set [2], 0.011 µg/mL (≈ 0.0186 µM); in data set [3], 7.04 µg/mL (≈ 11.9 µM); in data set [4], 0.03 µg/mL (≈ 0.0508 µM); in data set [6], 0.026 µg/mL (≈ 0.044 µM). Further, the solubility at 24 h in data set [5] came out at 155 µg/mL (≈ 262 µM). The growth inhibitory activity result in the data set on tumor cells was “quite similar to those of camptothecin”. Further, the “potency in inhibiting growth of tumor cells” value with tumor cells (more potent than HAR7) is recorded as 2-3 fold.
With `CC[C@@]1(O)C(=O)OCc2c1cc1n(c2=O)Cc2c-1nc1ccccc1c2CO[C@@H]1C=C[C@H](O[C@H]2O[C@H](COC(C)=O)[C@@H](OC(C)=O)[C@H](OC(C)=O)[C@H]2OC(C)=O)[C@@H](COC(C)=O)O1` [HAR5, 7-[6-O-acetyl-4-O-(2,3,4,6-tetra-O-acetyl-α-D-glucopyranosyl)-2,3-dideoxy-α-D-erythro-hex-2-enopyranosyl]oxymethylcamptothecin], the IC50 in data set [1] was 0.01 µg/mL (≈ 0.0114 µM); in data set [2], 0.105 µg/mL (≈ 0.119 µM); in data set [3] it was 21.2 µg/mL (≈ 24.1 µM); in data set [4], 0.362 µg/mL (≈ 0.412 µM); in data set [6], 0.43 µg/mL (≈ 0.489 µM). In addition, the solubility at 24 h in data set [5] stood at 35 µg/mL (≈ 39.8 µM). In addition, in the data set on tumor cells, the growth inhibitory activity entry is “more cytotoxic than camptothecin hydroxyl maltal (HAR6)”.
Regarding `CC[C@@]1(O)C(=O)OCc2c1cc1n(c2=O)Cc2c-1nc1ccccc1c2CO[C@@H]1C=C[C@H](O[C@H]2O[C@H](CO)[C@@H](O)[C@H](O)[C@H]2O)[C@@H](CO)O1` [HAR6, 7-[4-O-(α-D-glucopyranosyl)-2,3-dideoxy-α-D-erythro-hex-2-enopyranosyl]-oxymethylcamptothecin], the IC50 in data set [1] worked out at 0.111 µg/mL (≈ 0.166 µM); in data set [2], 0.476 µg/mL (≈ 0.712 µM); in data set [3], 28.4 µg/mL (≈ 42.5 µM); in data set [4], 1.68 µg/mL (≈ 2.51 µM); in data set [6] it was 2.43 µg/mL (≈ 3.63 µM). Further, in data set [5], the solubility at 24 h amounted to 1620 µg/mL (≈ 2420 µM). In data set [5], this molecule showed a water solubility improvement of 80 fold.
Consider `CC[C@@]1(O)C(=O)OCc2c1cc1n(c2=O)Cc2c-1nc1ccccc1c2CO[C@@H]1C=C[C@H](O)[C@@H](CO)O1` [HAR7, 7-[2,3-dideoxy-α-D-erythro-hex-2-enopyranosyl]-oxymethylcamptothecin], for which the IC50 worked out at 0.0064 µg/mL (≈ 0.0126 µM) in data set [1]; 0.031 µg/mL (≈ 0.0612 µM) in data set [2]; 18.7 µg/mL (≈ 36.9 µM) in data set [3]; 0.088 µg/mL (≈ 0.174 µM) in data set [4]; 0.173 µg/mL (≈ 0.342 µM) in data set [6]. For the same molecule, the concentration in solution in data set [5] (solubility at 24 h) was 62 µg/mL (≈ 122 µM). Moreover, the water solubility improvement in data set [5] is 16 fold. In the data set with tumor cells, the growth inhibitory activity result is recorded as “quite similar to those of camptothecin”.

The record behind these values is patent US5932709A (University of Michigan, priority 1997, dated 1999).
